Assay results as given in patent publication US20260274892A1, “MACROCYCLIC BROAD SPECTRUM ANTIBIOTICS” (RQx Pharmaceuticals, Inc., priority 2017, published 2026).

Key:
[1] = test system: Escherichia coli ATCC 25922; assay: Minimum inhibitory concentration (MIC), CLSI broth micro-dilution, E. coli; assay type: cell-based; settings: Escherichia coli, ATCC25922, 22 h
How it was run: (§1)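 Colonies grown 20 h at 35° C on Trypticase Soy agar (MRSA) or Luria agar (E. coli) were suspended in cation-adjusted Mueller Hinton broth with 0.002% Tween-80. Suspensions were added at OD600 0.0005 to 10-point twofold compound dilutions, then incubated 22 h at 35° C.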

[2] = test system: Methicillin Resistant Staphylococcus aureus strain USA 200; assay: Minimum inhibitory concentration (MIC), CLSI broth micro-dilution, S. aureus; assay type: cell-based; settings: Staphylococcus aureus, MRSA / USA200, MRSA USA 200, cation adjusted Mueller Hinton Broth + 0.002% Tween-80, 35° C., 22 hours
How it was run: as §1

[3] = Table 6, cation adjusted Mueller Hinton Broth + 0.002% Tween-80, 35° C.

| SMILES | MIC [1, 3] | MIC ([2]; Table 6) | MIC ([1]; Table 8, cation adjusted Mueller Hinton Broth + 0.002% Tween-80, 35° C.) | MIC ([2]; Table 8) |
| --- | --- | --- | --- | --- |
| CCCC#Cc1ccc(-c2ncc(C(=O)N[C@@H](CCN)C(=O)N(C)[C@@H]3C(=O)N[C@@H](C)C(=O)N[C@H](C(=O)NCC#N)Cc4ccc(OCCN)c(c4)-c4cc3ccc4OCCN)c(C)n2)cc1 (racemic) [Compound 227, rac-(8S,11S,14S)-3,18-bis(2-aminoethoxy)-N-(cyanomethyl)-11-methyl-14-[methyl-[rac-(2S)-4-amino-2-[[4-methyl-2-(4-pent-1-ynylphenyl)pyrimidine-5-carbonyl]amino]butanoyl]amino]-10,13-dioxo-9,12-diazatricyclo[13.3.1.12,6]icosa-1(18),2(20),3,5,15(19),16-hexaene-8-carboxamide] | 0.077 µM | 0.017 µM | – | – |
| Cc1nc(-c2ccc(O)cc2)nc(C)c1C(=O)N[C@@H](CCN)C(=O)N(C)[C@@H]1C(=O)N[C@@H](C)C(=O)N[C@H](C(=O)NCC#N)Cc2ccc(OCCN)c(c2)-c2cc1ccc2OCCN (racemic) [Compound 542, rac-(8S,11S,14S)-3,18-bis(2-aminoethoxy)-N-(cyanomethyl)-11-methyl-14-[methyl-[rac-(2S)-4-amino-2-[[2-(4-hydroxyphenyl)-4,6-dimethyl-pyrimidine-5-carbonyl]amino]butanoyl]amino]-10,13-dioxo-9,12-diazatricyclo[13.3.1.12,6]icosa-1(18),2(20),3,5,15(19),16-hexaene-8-carboxamide] | 4.4 µM | 0.55 µM | – | – |
| Cc1nc(C#CC2CCCCC2)ccc1C(=O)N[C@@H](CCN)C(=O)N(C)[C@@H]1C(=O)N[C@@H](C)C(=O)N[C@H](C(=O)NCC#N)Cc2ccc(OCCN)c(c2)-c2cc1ccc2OCCN (racemic) [Compound 214, rac-(8S,11S,14S)-3,18-bis(2-aminoethoxy)-N-(cyanomethyl)-11-methyl-14-[methyl-[rac-(2S)-4-amino-2-[[6-(2-cyclohexylethynyl)-2-methyl-pyridine-3-carbonyl]amino]butanoyl]amino]-10,13-dioxo-9,12-diazatricyclo[13.3.1.12,6]icosa-1(18),2(20),3,5,15(19),16-hexaene-8-carboxamide] | 0.41 µM | 0.034 µM | – | – |
| Cc1nc(-c2ccc(C(C)(C)C)cc2)c(N)cc1C(=O)N[C@@H](CCN)C(=O)N(C)[C@@H]1C(=O)N[C@@H](C)C(=O)N[C@H](C(=O)NCC#N)Cc2ccc(OCCN)c(c2)-c2cc1ccc2OCCN (racemic) [Compound 405, rac-(8S,11S,14S)-3,18-bis(2-aminoethoxy)-N-(cyanomethyl)-11-methyl-14-[methyl-[rac-(2S)-4-amino-2-[[5-amino-6-(4-tert-butylphenyl)-2-methyl-pyridine-3-carbonyl]amino]butanoyl]amino]-10,13-dioxo-9,12-diazatricyclo[13.3.1.12,6]icosa-1(18),2(20),3,5,15(19),16-hexaene-8-carboxamide] | 0.38 µM | 0.063 µM | – | – |
| Cc1nc(-c2ccc(OC3C[C@H]4CCCC[C@H]4C3)cc2)nc(C)c1C(=O)N[C@@H](CCN)C(=O)N(C)[C@@H]1C(=O)N[C@@H](C)C(=O)N[C@H](C(=O)NCC#N)Cc2ccc(OCCN)c(c2)-c2cc1ccc2OCCN (mixture of isomers) [Compound 349, rac-(8S,11S,14S)-3,18-bis(2-aminoethoxy)-N-(cyanomethyl)-11-methyl-14-[methyl-[rac-(2S)-4-amino-2-[[4,6-dimethyl-2-[4-[[rac-(3aR,7aS)-2,3,3a,4,5,6,7,7a-octahydro-1H-inden-2-yl]oxy]phenyl]pyrimidine-5-carbonyl]amino]butanoyl]amino]-10,13-dioxo-9,12-diazatricyclo[13.3.1.12,6]icosa-1(18),2(20),3,5,15(19),16-hexaene-8-carboxamide] | 0.094 µM | 0.023 µM | – | – |
| Cc1nc(C#Cc2ccccc2)nc(C)c1C(=O)N[C@@H](CCN)C(=O)N(C)[C@@H]1C(=O)N[C@@H](C)C(=O)N[C@H](C(=O)NCC#N)Cc2ccc(OCCN)c(c2)-c2cc1ccc2OCCN (racemic) [Compound 309, rac-(8S,11S,14S)-3,18-bis(2-aminoethoxy)-N-(cyanomethyl)-11-methyl-14-[methyl-[rac-(2S)-4-amino-2-[[4,6-dimethyl-2-(2-phenylethynyl)pyrimidine-5-carbonyl]amino]butanoyl]amino]-10,13-dioxo-9,12-diazatricyclo[13.3.1.12,6]icosa-1(18),2(20),3,5,15(19),16-hexaene-8-carboxamide] | 1.1 µM | 0.27 µM | – | – |
| CCCCCCCCc1ccc(C(=O)N[C@@H](CCC(=O)NC2COC2)C(=O)N(C)[C@@H]2C(=O)N[C@@H](C)C(=O)N[C@H](C(=O)NCC#N)Cc3ccc(OCCN)c(c3)-c3cc2ccc3OCCN)c(C)c1 (racemic) [Compound 447, rac-(2S)-N-methyl-2-[(2-methyl-4-octyl-benzoyl)amino]-N′-(oxetan-3-yl)-N-[rac-(7S,10S,13S)-3,18-bis(2-aminoethoxy)-13-(cyanomethylcarbamoyl)-10-methyl-8,11-dioxo-9,12-diazatricyclo[13.3.1.12,6]icosa-1(19),2,4,6(20),15,17-hexaen-7-yl]pentanediamide] | 4.2 µM | 0.033 µM | – | – |
| Cc1nc(-c2ccc(C(C)(C)c3ccccc3)cc2)ncc1C(=O)N[C@@H](CCN)C(=O)N(C)[C@@H]1C(=O)N[C@@H](C)C(=O)N[C@H](C(=O)NCC#N)Cc2ccc(OCCN)c(c2)-c2cc1ccc2OCCN (racemic) [Compound 236, rac-(8S,11S,14S)-3,18-bis(2-aminoethoxy)-N-(cyanomethyl)-11-methyl-14-[methyl-[rac-(2S)-4-amino-2-[[4-methyl-2-[4-(1-methyl-1-phenyl-ethyl)phenyl]pyrimidine-5-carbonyl]amino]butanoyl]amino]-10,13-dioxo-9,12-diazatricyclo[13.3.1.12,6]icosa-1(18),2(20),3,5,15(19),16-hexaene-8-carboxamide] | 0.13 µM | 0.016 µM | – | – |
| CCCCCOc1ccc(-c2nc(C)c(C(=O)N[C@@H](CCN)C(=O)N(C)[C@@H]3C(=O)N[C@@H](C)C(=O)N[C@H](C(=O)O)Cc4ccc(O)c(c4)-c4cc3ccc4OCCN)c(C)n2)cc1 (racemic) [Compound 648, rac-(8S,11S,14S)-18-(2-aminoethoxy)-3-hydroxy-11-methyl-14-[methyl-[rac-(2S)-4-amino-2-[[4,6-dimethyl-2-(4-pentoxyphenyl)pyrimidine-5-carbonyl]amino]butanoyl]amino]-10,13-dioxo-9,12-diazatricyclo [13.3.1.12,6]icosa-1(18),2(20),3,5,15(19), 16-hexaene-8-carboxylic acid] | – | – | 0.1 µM | 0.28 µM |
| Cc1nc(-c2ccc(C(C)(C)C)cc2)ncc1C(=O)N[C@@H](CN)C(=O)N(C)[C@@H]1C(=O)N[C@@H](C)C(=O)N[C@H](C(=O)NCC#N)Cc2ccc(OCCN)c(c2)-c2cc1ccc2OCCN (racemic) [Compound 457, rac-(8S,11S,14S)-3,18-bis(2-aminoethoxy)-N-(cyanomethyl)-11-methyl-14-[methyl-[rac-(2S)-3-amino-2-[[2-(4-tert-butylphenyl)-4-methyl-pyrimidine-5-carbonyl]amino]propanoyl]amino]-10,13-dioxo-9,12-diazatricyclo[13.3.1.12,6]icosa-1(18),2(20),3,5,15(19),16-hexaene-8-carboxamide] | 0.27 µM | 0.025 µM | – | – |
| COc1cc(C(=O)N[C@@H](CCN)C(=O)N(C)[C@@H]2C(=O)N[C@@H](C)C(=O)N[C@H](C(=O)NCC#N)Cc3ccc(OCCN)c(c3)-c3cc2ccc3OCCN)c(C)nc1-c1ccc(C(C)(C)C)cc1 (racemic) [Compound 403, rac-(8S,11S,14S)-3,18-bis(2-aminoethoxy)-N-(cyanomethyl)-11-methyl-14-[methyl-[rac-(2S)-4-amino-2-[[6-(4-tert-butylphenyl)-5-methoxy-2-methyl-pyridine-3-carbonyl]amino]butanoyl]amino]-10,13-dioxo-9,12-diazatricyclo[13.3.1.12,6]icosa-1(18),2(20),3,5,15(19),16-hexaene-8-carboxamide] | 0.5 µM | 0.016 µM | – | – |
| CCCCc1ccc(-c2ncc(C(=O)N[C@@H](CCN)C(=O)N(C)[C@@H]3C(=O)N[C@@H](C)C(=O)N[C@H](C(=O)NCC#N)Cc4ccc(OCCN)c(c4)-c4cc3ccc4OCCN)c(C)n2)c(Cl)c1 (racemic) [Compound 235, rac-(8S,11S,14S)-3,18-bis(2-aminoethoxy)-N-(cyanomethyl)-11-methyl-14-[methyl-[rac-(2S)-4-amino-2-[[2-(4-butyl-2-chloro-phenyl)-4-methyl-pyrimidine-5-carbonyl]amino]butanoyl]amino]-10,13-dioxo-9,12-diazatricyclo[13.3.1.12,6]icosa-1(18),2(20),3,5,15(19),16-hexaene-8-carboxamide] | 0.26 µM | 0.016 µM | – | – |
| CCc1ccc(-c2ncc(C(=O)N[C@@H](CCN)C(=O)N(C)[C@@H]3C(=O)N[C@@H](C)C(=O)N[C@H](C(=O)NCC#N)Cc4ccc(OCCN)c(c4)-c4cc3ccc4OCCN)c(C)n2)c2ccccc12 (racemic) [Compound 221, rac-(8S,11S,14S)-3,18-bis(2-aminoethoxy)-N-(cyanomethyl)-11-methyl-14-[methyl-[rac-(2S)-4-amino-2-[[2-(4-ethyl-1-naphthyl)-4-methyl-pyrimidine-5-carbonyl]amino]butanoyl]amino]-10,13-dioxo-9,12-diazatricyclo[13.3.1.12,6]icosa-1(18),2(20),3,5,15(19),16-hexaene-8-carboxamide] | 1 µM | 0.024 µM | – | – |
